Assay: Absorption and emission spectra, fluorescence quantum efficiency in EtOH, PBS and lipid vesicles (MLV)
Type: physicochemical
Description: FIGS. 2A-2C are plots showing absorption and emission spectra of 2a, in comparison with ElectroFluor630, in various solvent environments: MLV, EtOH, and PBS. Multilamellar lipid vesicle suspension (MLV) was prepared by sonicating soybean phosphatidylcholine in PBS buffer (2 mg/mL) to mimic the cell membrane environment. The emission spectra in ethanol and PBS buffer were scaled 10 and 20 times respectively relative to the emission spectra in MLV. Excitation wavelength is 580 nm for emission spectra.
All chemicals were purchased from commercial sources (Sigma Aldrich, Acros, TCI America, Combi-Blocks, and others) and used without further purification. Column chromatography was generally performed on COMBIFLASH NextGen 300 using normal phase silica columns except that for some final dye products amine silica columns were used. Thin layer chromatography (TLC) was carried out on EM 60 F-254 plastic TLC plates. NMR spectra were recorded on Varian 400 MHz, 500 MHz, and 800 MHz instruments at the UConn Heath Structural Biology Facility. All spectra are referenced internally to TMS or residual solvent signals. Electrospray ionization (ESI) high-resolution mass spectra (HRMS) were obtained on a QStar Elite (AB Sciex) at the Department of Chemistry, University of Connecticut. UV/Vis absorption spectra were recorded on a UV-Visible spectrophotometer (Shimadzu, UV-1601PC) and fluorescence emission spectra on a Horiba Fluorolog spectrofluorometer (Horiba, Inc., Edison, NJ). Fluorescence quantum yield for dyes was determined by a relative method using Rhodamine 6G (excited at 480 nm, FQY=0.95 in EtOH) or cresyl violet (excited at 580 nm, FQY=0.54 in MeOH) as the references.
Absorbance and the fluorescence properties of the new VSDs were determined. The absorption and emission spectra for 2a, together with ElectroFluor630, in aqueous buffer (PBS), ethanol, and when intercalated in the membrane of lipid vesicles are shown in FIGS. 2A-C. […] This is particularly advantageous for fluorescence imaging because background fluorescence from unbound dye is negligible. Another characteristic of the hemicyanine VSDs that is preserved by 2a in FIGS. 2A-C is the large Stokes shift between the excitation and emission maxima. 125 nm for the membrane-bound dye. This is also a benefit for fluorescence detection and imaging, as the fluorescence can be readily filtered from scattered exciting light. The broad wavelength window afforded by the spectra is also an important benefit for the design of experiments with multiple fluorescent sensors. For comparative purposes, certain VSDs are shown below.
As expected, the spectra are largely insensitive to alkyl substitution. Table 1 also includes data for ElectroFluor630 (aka Di-4-ANEQ (F) PTEA) for comparison. The absorption maxima of 2a in ethanol (EtOH), aqueous buffer (PBS) and when bound to lipid membranes (multilamellar vesicles, MLV) are red shifted by 77 nm, 63 nm and 63 nm, respectively, relative to ElectroFluor630, which is isostructural to 2a. […] The absorption and emission spectra of 2a, 2b, and 2c are all shifted to the red by 50-65 nm relative to ElectroFluor630.

Work on `CCCCCCN(CCCCCC)c1ccc2c(c1)OCC(/C=C/c1c(F)c[n+](CCC[N+](CC)(CC)CC)c3ccccc13)=C2.[Br-].[Br-]` [2c] yielded an absorption maximum (in EtOH) of 696 nm, an absorption maximum (in MLV (multilamellar lipid vesicles)) of 599 nm and an absorption maximum (in PBS) of 597 nm. For the same molecule, the “Fluorescence quantum efficiency (FQE)” value (in lipid vesicle suspensions) was 0.10 and the emission maximum (membrane-bound (MLV)) was 734 nm.

Reference: patent US20260048151A1, “HEMICYANINE PUSH-PULL DYES BASED ON CHROMENE ELECTRON DONORS” (UNIVERSITY OF CONNECTICUT, priority 2022, published 2026)
